In patent US12440525B2 (priority 2017, dated 2025):
Structures can show the parent of a compound that is named as a salt. Where two headings read alike, the source gives them in different places.

Key:
[1] = system: VSVΔ51; assay type: cell-based, Vesicular stomatitis virus
[2] = system: VSVΔ51; assay type: cell-based, Vesicular stomatitis virus; remark: listed apart in the source
[3] = system: STAT1; assay type: cell-based, human
[4] = system: VSVΔ51; assay type: cell-based, Vesicular stomatitis virus; remark: listed apart in the source
[5] = system: HSV-1 mutant N212; assay type: cell-based, herpes simplex virus
[6] = system: Sindbis virus; assay type: cell-based
[7] = system: E1A-deleted Ad5; assay type: cell-based, adenovirus serotype 5
[8] = system: VSVΔ51; assay type: cell-based, Vesicular stomatitis virus; remark: listed apart in the source
[9] = system: 786-0 cells; assay type: cell-based, human
[10] = system: CT26WT cells; assay type: cell-based, murine
[11] = system: B16F10 cells; assay type: cell-based, murine
[12] = system: VSVΔ51; assay type: cell-based, Vesicular stomatitis virus; remark: listed apart in the source
[13] = system: VSVΔ51; assay type: cell-based, Vesicular stomatitis virus; remark: listed apart in the source
[14] = system: VSVΔ51; assay type: cell-based, Vesicular stomatitis virus; remark: listed apart in the source
[15] = system: VSVΔ51; assay type: cell-based, Vesicular stomatitis virus; remark: listed apart in the source
[16] = system: CT26WT tumors; conditions: mouse, in vivo
[17] = system: B16F10 tumors; conditions: mouse, in vivo
[18] = system: HT29 tumors; conditions: mouse, in vivo
[19] = system: STAT1; assay type: cell-based, human; remark: listed apart in the source
[20] = system: STAT2; assay type: cell-based, human
[21] = system: IFITM1; assay type: cell-based, human
[22] = system: VSV-viral proteins; assay type: cell-based, Vesicular stomatitis virus
[23] = system: wild-type VSV (wtVSV); assay type: cell-based, Vesicular stomatitis virus
[24] = system: VSVΔ51; assay type: cell-based, Vesicular stomatitis virus; remark: listed apart in the source
[25] = system: wtVSV; assay type: cell-based, Vesicular stomatitis virus
[26] = system: VSVΔ51; assay type: cell-based, Vesicular stomatitis virus; remark: listed apart in the source
[27] = system: NF-κB subunit p65; assay type: cell-based, human
[28] = system: replication incompetent lentivirus; assay type: cell-based

Compound: CCOC(=O)/C=C/C(=O)OCC [DEF, diethyl fumarate]
- VSVΔ51 infection, spread, and oncolysis [1]: robustly enhanced
- VSVΔ51 infection, spread, and oncolysis [2]: robustly enhanced

Compound: CCOC(=O)/C=C\C(=O)OCC [DEM, diethyl maleate]
- VSVΔ51 infection, spread, and oncolysis [1]: robustly enhanced
- VSVΔ51 infection, spread, and oncolysis [2]: robustly enhanced
- STAT1 phosphorylation in cells conditioned with IFNβ [3]: inhibited STAT1 phosphorylation

Compound: COC(=O)/C=C/C(=O)OC [DMF, dimethyl fumarate]
- Virus-encoded GFP expression [1]: greatly enhanced
- increase of VSVΔ51 virus growth [1]: more than 100 fold
- infection of VSVΔ51 [1]: enhanced infection
- pre-treatment time prior to infection at which the enhancing effect was observed [1]: up to 24 hours
- time post-infection of treatment at which the enhancing effect was observed [1]: up to 8 hours
- viral output of VSVΔ51, growth curve at low MOI [1]: enhanced the viral output
- VSVΔ51 infection in panel of cancer cell lines [4]: robustly enhanced infection
- viral output of oncolytic herpes virus [5]: improved viral output
- viral output of Sindbis virus [6]: improved viral output
- increase of luciferase transgene expression [7]: up to 20 fold
- average plaque diameter of VSVΔ51 [8]: substantially increased
- cell viability, combined treatment with VSVΔ51 [9]: synergistic decrease in cell viability
- cell viability, combined treatment with VSVΔ51 [10]: synergistic decrease in cell viability
- cell viability, combined treatment with VSVΔ51 [11]: synergistic decrease in cell viability
- virus growth in normal tissue cores [12]: did not increase virus growth
- increase of VSVΔ51 infection ex vivo in primary human tumor samples [13]: > 10 fold
- VSVΔ51 infection in patient-derived cancer cell lines [14]: increased VSVΔ51 infection
- virus growth in human normal tissues [15]: did not improve virus growth
- challenge of cured mice with a foreign tumor [16]: grew 4T1 tumors at a similar rate as the naive mice
- mice with complete remission, combination therapy [16]: approximately 20%
- re-challenge of cured mice with the same cancer cells [16]: immune to re-challenge
- survival, combination therapy compared with either monotherapy [16]: significantly prolonged survival
- tumor progression, combination therapy DMF + VSVΔ51 [16]: considerable delay in tumor progression
- virus-associated luciferase gene expression in tumors [16]: enhanced virus-associated luciferase gene expression
- mice with complete remission, combination therapy [17]: approximately 20%
- survival, combination therapy compared with either monotherapy [17]: significantly prolonged survival
- tumor progression, combination therapy DMF + VSVΔ51 [17]: considerable delay in tumor progression
- survival, combination therapy compared with either monotherapy [18]: significantly prolonged survival
- tumor progression, combination therapy DMF + VSVΔ51 [18]: considerable delay in tumor progression
- virus-associated luciferase gene expression in tumors [18]: enhanced virus-associated luciferase gene expression
- activation (phosphorylation) of STAT1 [19]: decreased activation (phosphorylation)
- activation (phosphorylation) of STAT2 [20]: decreased activation (phosphorylation)
- expression levels of the antiviral protein IFITM1 [21]: potently repressed
- VSV-viral proteins [22]: increased
- infection of 786-0 cells by wild-type VSV [23]: no impact on infection
- protective (suppressive) effect of VSVΔ51ΔG-infected cell supernatant on subsequent infection [24]: completely overcome this suppressive effect
- protective (suppressive) effect of VSVΔ51ΔG-infected cell supernatant on subsequent infection [25]: completely overcome this suppressive effect
- antiviral effects of Type I IFN pretreatment on VSVΔ51 infection [26]: antagonized the antiviral effects
- STAT1 phosphorylation in cells conditioned with IFNβ [3]: inhibited STAT1 phosphorylation
- phosphorylation and translocation of NF-κB subunit p65 upon TNFα stimulation [27]: inhibits phosphorylation and translocation
- phosphorylation and translocation of NF-κB subunit p65 upon infection [27]: inhibits phosphorylation and translocation

Compound: COC(=O)/C=C\C(=O)OC [DMM, dimethyl maleate]
- VSVΔ51 infection, spread, and oncolysis [1]: robustly enhanced
- VSVΔ51 infection, spread, and oncolysis [2]: robustly enhanced

Compound: COC(=O)CCC(=O)OC [DMS, dimethyl succinate]
- viral output of VSVΔ51 [1]: no impact on viral output

Compound: O=C(O)/C=C/C(=O)O [FA, fumaric acid]
- infection of VSVΔ51 / viral growth [1]: no impact on viral growth

Compound: COC(=O)/C=C/C(=O)O [MMF, monomethyl fumarate]
- increase in lentivirus yield [28]: 2.4 fold
